Assay results as given in patent US10960013B2, “J-series prostaglandin-ethanolamides as novel therapeutics for skin and/or oral disorders” (East Carolina University, priority 2016, dated 2021).
“Also recorded” adds a separate entry of the source.

Legend:
[1] = tested on: tumorigenic (JWF2) and non-tumorigenic (HaCaT) cells; test: Cell viability (MTS) of tumorigenic and non-tumorigenic keratinocytes treated with 15dPMJ2; format: cell-based; details: 12 hours
Description: Tumorigenic and non-tumorigenic keratinocytes were treated with different concentrations of 15dPMJ2, vehicle, or were untreated for 12 hours. Cell viability was detected by conducting MTS experiments. Data represent the mean±SEM of three independent experiments and are expressed as the percent of the untreated cells. *P<0.01.
(§1) To assess the in vivo antineoplastic action of 15dPMJ2, the subcutaneous mouse tumor model was utilized. Melanoma cells were subcutaneously implanted in the flank region of C57BL/6 mice and treated with 0.5 mg/kg 15dPMJ2, vehicle [0.1% DMSO in phosphate buffered saline (PBS)], or were untreated. […] To determine if 15dPMJ2 induced ER stress the expression of CHOP10 was detected in the tumor sections.

[2] = tested on: Melanoma cells subcutaneously implanted in the flank region of C57BL/6 mice; test: Subcutaneous mouse tumor model, tumor weight; format: in vivo; details: 0.5 mg/kg for 5 days; compared to vehicle and untreated animals; P<0.01
Description: Tumors grown in C57BL/6 mice were either untreated (UT), vehicle treated (VEH), or treated with 0.5 mg/kg 15dPMJ2 for 5 days. Tumor weights were determined. #P<0.01 compared to untreated; *P<0.01 compared to vehicle treated (one-way ANOVA with Tukey's post-hoc test).
as §1

[3] = tested on: CHOP10; test: CHOP10 expression (ER stress) in excised tumor sections; format: in vivo, C57BL/6 mice; details: 0.5 mg/kg for 5 days
Description: as §1

CCCCC/C=C/C=C1/C(=O)C=CC1C/C=C/CCCC(=O)NCCO (stereo not shown) [15dPMJ2, 15-deoxy Δ^12,14-prostagladin J2-ethanolamide]
toxicity towards tumorigenic keratinocytes relative to non-tumorigenic keratinocytes ([1]; at 5 μM, JWF2 vs HaCaT, MTS cell viability): 4 fold | selective toxicity (cell viability, tumorigenic vs non-tumorigenic keratinocytes) ([1]; different concentrations, MTS): selectively toxic | tumor weight / solid tumor growth [2]: statistically significant reduction in tumor weight; also recorded: inhibits solid tumor growth | CHOP10 expression in the tumors (ER stress) [3]: markedly increased CHOP10 expression; also recorded: increases ER stress
